The source of these data is PubChem BioAssay AID2060883 (Molecular Pharmacology Branch, DTP, NCI, 2025).

This assay concerns 843782-103-R-J1-PDC complex spheroid viability. Nature of the assay: Anticancer human tumor 843782-103-R-J1-PDC patient-derived lung adenocarcinoma cell line growth inhibition [RAS]. The conditions noted are these: for IC50: curve of first compound; for viability, T/C: stronger effect = lower value. Summed up: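 Tumour cells grown as complex spheroids with HUVEC endothelial cells and mesenchymal stem cells, treated with RAS pathway inhibitor combinations. Each agent spans half-log steps from near clinical Cmax, or 10 microM where Cmax is unknown.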
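Also: viability read after seven days of compound exposure.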

Consider `CC(Nc1ccc2c(c1)OCCn1cc(N3C(=O)OCC3C(F)F)nc1-2)C(N)=O` (stereo unspecified) + C=CC(=O)N1CCN(c2nc(OCC3CCCN3C)nc3c(F)c(-c4nc(N)cc(C)c4C(F)(F)F)c(Cl)cc23)C(C)C1, for which the IC50 (in general, the concentration at which inhibition is half-maximal) worked out at 129 nM (second compound 0.00316 µM); 93.6 nM (second compound 0.01 µM); 96.2 nM (second compound 0.0316 µM); 133 nM (second compound 0.1 µM); 114 nM (second compound 0.316 µM); 118 nM (second compound 1 µM). Besides, the viability, T/C (usually the ratio of treated to control) was 78.7% (second compound 0.00316 µM, first compound 0.0316 µM); 51.4% (second compound 0.00316 µM, first compound 0.1 µM); 38% (second compound 0.00316 µM, first compound 0.316 µM); 24.7% (second compound 0.00316 µM, first compound 1 µM); 17.9% (second compound 0.00316 µM, first compound 3.16 µM); 9.53% (second compound 0.00316 µM, first compound 10 µM). Moreover, the viability, T/C was 69% (second compound 0.01 µM, first compound 0.0316 µM); 49.3% (second compound 0.01 µM, first compound 0.1 µM); 32.3% (second compound 0.01 µM, first compound 0.316 µM); 25.1% (second compound 0.01 µM, first compound 1 µM); 19.7% (second compound 0.01 µM, first compound 3.16 µM); 10.9% (second compound 0.01 µM, first compound 10 µM). Also, the viability, T/C (second compound 0.0316 µM, first compound 0.0316 µM) was 69.3%; the viability, T/C (second compound 0.0316 µM, first compound 0.1 µM) was 49.5%; the viability, T/C (second compound 0.0316 µM, first compound 0.316 µM) was 33.6%; the viability, T/C (second compound 0.0316 µM, first compound 1 µM) was 23.1%; the viability, T/C (second compound 0.0316 µM, first compound 3.16 µM) was 20.4%; the viability, T/C (second compound 0.0316 µM, first compound 10 µM) was 9.06%. Further, the viability, T/C reads like this: (second compound 0.1 µM, first compound 0.0316 µM) 67.8%; (second compound 0.1 µM, first compound 0.1 µM) 57.8%; (second compound 0.1 µM, first compound 0.316 µM) 30%; (second compound 0.1 µM, first compound 1 µM) 23.1%; (second compound 0.1 µM, first compound 3.16 µM) 15.4%; (second compound 0.1 µM, first compound 10 µM) 10.2%. Besides, the viability, T/C was 65.7% (second compound 0.316 µM, first compound 0.0316 µM); 54.2% (second compound 0.316 µM, first compound 0.1 µM); 33.5% (second compound 0.316 µM, first compound 0.316 µM); 24.3% (second compound 0.316 µM, first compound 1 µM); 17.4% (second compound 0.316 µM, first compound 3.16 µM); 8.73% (second compound 0.316 µM, first compound 10 µM). The viability, T/C is, setting by setting: (second compound 1 µM, first compound 0.0316 µM) 74.3%; (second compound 1 µM, first compound 0.1 µM) 45.4%; (second compound 1 µM, first compound 0.316 µM) 40.6%; (second compound 1 µM, first compound 1 µM) 26.5%; (second compound 1 µM, first compound 3.16 µM) 17.9%; (second compound 1 µM, first compound 10 µM) 8.86%.

With `NC1c2ccccc2OC12CCN(c1cnc3c(N4CCCc5ncccc54)n[nH]c3n1)CC2` (stereo unspecified), the viability, T/C by setting is: (compound 3.16 µM) 51.5% [middle of 4 runs]; (compound 10 µM) 34.7% [middle of 4 runs].

As for `CC(Nc1ccc2c(c1)OCCn1cc(N3C(=O)OCC3C(F)F)nc1-2)C(N)=O` (stereo unspecified), the viability, T/C by setting is: (compound 0.0316 µM) 95.9% [middle of 4 runs]; (compound 0.316 µM) 50.3% [middle of 4 runs]; (compound 1 µM) 38.3% [middle of 4 runs]; (compound 3.16 µM) 26.1% [middle of 4 runs]; (compound 10 µM) 16.3% [middle of 4 runs].

Turning to `Cc1nc(N2CCC3(CC2)COC(C)C3N)c(CO)nc1Sc1ccnc(N)c1Cl` (stereo unspecified) + CCn1c(-c2cc(N3CCN(C)CC3)cnc2C(C)OC)c2c3cc(ccc31)-c1csc(n1)CC(NC(=O)C1CC1C)C(=O)N1CCCC(N1)C(=O)OCC(C)(C)C2, the IC50 (second compound 0.000949 µM) came to 51.5 nM; the IC50 (second compound 0.003 µM) turned out to be 31.8 nM; the IC50 (second compound 0.00949 µM) is less than 31.6 nM; the IC50 (second compound 0.03 µM) was less than 31.6 nM; the IC50 (second compound 0.0949 µM) is less than 31.6 nM; the IC50 (second compound 0.3 µM) is less than 31.6 nM. Moreover, the viability, T/C by setting is: (second compound 0.000949 µM, first compound 0.0316 µM) 54.4%; (second compound 0.000949 µM, first compound 0.1 µM) 42%; (second compound 0.000949 µM, first compound 0.316 µM) 40.2%; (second compound 0.000949 µM, first compound 1 µM) 23.5%; (second compound 0.000949 µM, first compound 3.16 µM) 19.4%; (second compound 0.000949 µM, first compound 10 µM) 19.2%. The viability, T/C is 50% (second compound 0.003 µM, first compound 0.0316 µM); 39.2% (second compound 0.003 µM, first compound 0.1 µM); 29.5% (second compound 0.003 µM, first compound 0.316 µM); 22.1% (second compound 0.003 µM, first compound 1 µM); 19.4% (second compound 0.003 µM, first compound 3.16 µM); 13.4% (second compound 0.003 µM, first compound 10 µM). The viability, T/C (second compound 0.00949 µM, first compound 0.0316 µM) was 26.4%; the viability, T/C (second compound 0.00949 µM, first compound 0.1 µM) was 25.6%; the viability, T/C (second compound 0.00949 µM, first compound 0.316 µM) was 20%; the viability, T/C (second compound 0.00949 µM, first compound 1 µM) was 19.6%; the viability, T/C (second compound 0.00949 µM, first compound 3.16 µM) was 15.9%; the viability, T/C (second compound 0.00949 µM, first compound 10 µM) was 15.1%. The viability, T/C is, setting by setting: (second compound 0.03 µM, first compound 0.0316 µM) 18.6%; (second compound 0.03 µM, first compound 0.1 µM) 17.8%; (second compound 0.03 µM, first compound 0.316 µM) 16.4%; (second compound 0.03 µM, first compound 1 µM) 15.5%; (second compound 0.03 µM, first compound 3.16 µM) 15.5%; (second compound 0.03 µM, first compound 10 µM) 14.1%. For the same compound, the viability, T/C by setting is: (second compound 0.0949 µM, first compound 0.0316 µM) 17.4%; (second compound 0.0949 µM, first compound 0.1 µM) 13.6%; (second compound 0.0949 µM, first compound 0.316 µM) 13.3%; (second compound 0.0949 µM, first compound 1 µM) 13%; (second compound 0.0949 µM, first compound 3.16 µM) 13.5%; (second compound 0.0949 µM, first compound 10 µM) 12.2%. Besides, the viability, T/C (second compound 0.3 µM, first compound 0.0316 µM) is 13.7%; the viability, T/C (second compound 0.3 µM, first compound 0.1 µM) is 15.5%; the viability, T/C (second compound 0.3 µM, first compound 0.316 µM) was 15.1%; the viability, T/C (second compound 0.3 µM, first compound 1 µM) was 15.4%; the viability, T/C (second compound 0.3 µM, first compound 3.16 µM) was 14%; the viability, T/C (second compound 0.3 µM, first compound 10 µM) was 12.4%.
